For test [1], the system named is human oral squamous carcinoma HSC-2 cells. The test can be described thus: CCK-8 antiproliferative assay, HSC-2. Type of test: cell-based. Conditions: for IC50: Homo sapiens, read-out: IC50 (μM) HSC-2. On the procedure: (§1) The in vitro antiproliferative activities of target compounds were investigated against human oral squamous carcinoma HSC-2, SCC-9, and A253 cells and human renal tubular epithelial HK-2 cells by Cell Counting Kit-8 (CCK-8) assay. The HSC-2, SCC-9, and A253 cell lines were purchased from Cobioer Biosciences (Nanjing, China), and HK-2 cell line was from KeyGen Biotech (Nanjing, China). The cells were placed into 96-well plates. After 24 h, cells were treated with 0.1% DMSO or different doses of test compounds for 72 h at 37°C in a CO2 incubator. Subsequently, 100 μl of CCK-8 test solution was added and incubated for 3 h at 37°C. The absorbance value of each well was measured at 450 nm.

For test [2], the system named is human oral squamous carcinoma SCC-9 cells. The test can be described thus: CCK-8 antiproliferative assay, SCC-9. Type of test: cell-based. Conditions: for IC50: Homo sapiens, read-out: IC50 (μM) SCC-9. On the procedure:
as §1

Test [3] has as its system human oral squamous carcinoma A253 cells. The test can be described thus: CCK-8 antiproliferative assay, A253. Type of test: cell-based. Conditions: for IC50: Homo sapiens, read-out: IC50 (μM) A253. On the procedure: as §1
Test [4] relates to human renal tubular epithelial HK-2 cells. The test can be described thus: CCK-8 assay on normal cells, HK-2. Type of test: cell-based. Conditions: Homo sapiens, HK-2, 72 h, read-out: IC50 (μM) HK-2. As to the method:
as §1
(In general: Tetrazolium assays rely on reduction of a dye to a coloured formazan, in cell work by metabolically active cells.)

A further test relates to human breast MCF-7 cells. More on the design: method as in Sun et al., 2017. Conditions: in vitro; ref Sun et al., 2017; read-out: IC50 against MCF-7 cells; cited from earlier work.
For test [5], the system named is human non-small-cell lung carcinoma A549 cells. Also noted: method as in Yang et al., 2019. Conditions: ref Yang et al., 2019; read-out: IC50 against A549 cells; cited from earlier work.
The subject of the next test is MGC-803 cells. Also noted: method as in Huang et al., 2017. Conditions: in vitro; ref Huang et al., 2017; cited from earlier work.
The next test relates to NCI-H460 cells. More on the design: method as in Huang et al., 2017. Conditions: in vitro; ref Huang et al., 2017; cited from earlier work.

Where two headings read alike, the source gives them in different places. Some results are limits rather than exact numbers.

Usually IC50 stands for the concentration needed to halve the response being measured.

With `COc1cc([C@@H]2c3cc4c(cc3[C@H](O)[C@H]3COC(=O)[C@H]23)OCO4)cc(OC)c1OC` [compound 1, Podophyllotoxin], the IC50 in test [1] (HSC-2, 72 h) came to 0.011 ± 0.003 µM; in test [2] (SCC-9, 72 h) it was 0.009 ± 0.001 µM; in test [3] (A253, 72 h), 0.01 ± 0.001 µM; in test [4] it was 0.04 ± 0.006 µM.

`COc1cc(C2c3cc4c(cc3C(OC(=O)CN3CCN(c5ccc(Cl)c(Cl)c5)CC3)C3COC(=O)C23)OCO4)cc(OC)c1OC` (centres unmarked) [compound 5]: in the test with human breast MCF-7 cells, the IC50 was 2780 ± 150 nM.

As to `COc1ccc(-c2coc3cc(OCC(=O)OC4c5cc6c(cc5C(c5cc(OC)c(OC)c(OC)c5)C5C(=O)OCC45)OCO6)ccc3c2=O)cc1` (centres unmarked) [compound 6], in test [5], the concentration for half-maximal inhibition (IC50) was 753 ± 173 nM.

Regarding `Cc1cc(=O)oc2cc(O)ccc12` [compound 7, 4-methylumbelliferone], the “IC50 (μM) HSC-2” value in test [1] (CCK-8, 72 h, mean ± SD) is “no antiproliferative effect”. For the same molecule, the concentration for half-maximal inhibition (IC50) in test [1] (HSC-2, CCK-8, 72 h, mean ± SD) is more than 100 µM; in test [2] (SCC-9, CCK-8, 72 h, mean ± SD), more than 100 µM; in test [3] (A253, CCK-8, 72 h, mean ± SD), more than 100 µM. The “IC50 (μM) SCC-9” value in test [2] (CCK-8, 72 h, mean ± SD) is “no antiproliferative effect”. Also, the “IC50 (μM) A253” value in test [3] (CCK-8, 72 h, mean ± SD) is given as “no antiproliferative effect”.

`O=c1ccc2ccc(O)cc2o1` [compound 8, 7-hydroxycoumarin]: in test [1] (CCK-8, 72 h, mean ± SD), the “IC50 (μM) HSC-2” value is reported as “no antiproliferative effect”. For the same molecule, the IC50 in test [1] (HSC-2, CCK-8, 72 h, mean ± SD) was more than 100 µM; in test [2] (SCC-9, CCK-8, 72 h, mean ± SD), more than 100 µM; in test [3] (A253, CCK-8, 72 h, mean ± SD), more than 100 µM. For the same molecule, the “IC50 (μM) SCC-9” value in test [2] (CCK-8, 72 h, mean ± SD) was “no antiproliferative effect”. In addition, in test [3] (CCK-8, 72 h, mean ± SD), the “IC50 (μM) A253” value is “no antiproliferative effect”.

As for `Cc1cc(=O)oc2c(CN3CCN(C(=O)Nc4ccc(Br)c(F)c4)CC3)c(O)ccc12` [compound 10], the IC50 in the test on MGC-803 cells was 2130 ± 750 nM; with NCI-H460 cells it was 1860 ± 730 nM.
